Data reported in BindingDB's records for doi:10.1038/nchembio.2326 (California Institute of Technology, 2017).
pIC50: −log10 of the molar value.

Columns and labels:
Lactoylglutathione lyase = Lactoylglutathione lyase (Homo sapiens, UniProt Q04760); assay: GLO1 Activity Assay; conditions: pH 7; 25 °C
Protocol: Assays were carried out in 100 mM sodium phosphate, pH 7.0 buffer using 96-well Clear UV Plate (Corning UV Transparent Microplates; catalog #3635). A fresh solution of glutathione (pre-substrate 1, 100 mM) as well as methylglyoxal (pre-substrate 2, 100 mM) was prepared in deionized water. The substrate was prepared by adding 14.5 ml of buffer and 0.99 ml of each pre-substrate components. The substrate mixture was vortexed vigorously for 15 s, then allowed to sit at room temperature for 20 min. Initial well volume was 50 μl containing GLO1 (40 ng) and inhibitor. This protein and inhibitor mixture was incubated for 15–20 min before the addition of substrate. To this was then added substrate (150 μl), yielding a maximum amount of 5% DMSO per well. The enzyme activity was measured using a BioTek Synergy H4 plate reader by measuring absorbance at 240 nmevery 1 min for 8 min.

Histone deacetylase 6 = biological target: T1, Histone deacetylase 6 (Homo sapiens, UniProt Q9UBN7); assay: HDAC6 Activity Assay; conditions: pH 8; 37 °C
T1 sequence (Q9UBN7 whole entry): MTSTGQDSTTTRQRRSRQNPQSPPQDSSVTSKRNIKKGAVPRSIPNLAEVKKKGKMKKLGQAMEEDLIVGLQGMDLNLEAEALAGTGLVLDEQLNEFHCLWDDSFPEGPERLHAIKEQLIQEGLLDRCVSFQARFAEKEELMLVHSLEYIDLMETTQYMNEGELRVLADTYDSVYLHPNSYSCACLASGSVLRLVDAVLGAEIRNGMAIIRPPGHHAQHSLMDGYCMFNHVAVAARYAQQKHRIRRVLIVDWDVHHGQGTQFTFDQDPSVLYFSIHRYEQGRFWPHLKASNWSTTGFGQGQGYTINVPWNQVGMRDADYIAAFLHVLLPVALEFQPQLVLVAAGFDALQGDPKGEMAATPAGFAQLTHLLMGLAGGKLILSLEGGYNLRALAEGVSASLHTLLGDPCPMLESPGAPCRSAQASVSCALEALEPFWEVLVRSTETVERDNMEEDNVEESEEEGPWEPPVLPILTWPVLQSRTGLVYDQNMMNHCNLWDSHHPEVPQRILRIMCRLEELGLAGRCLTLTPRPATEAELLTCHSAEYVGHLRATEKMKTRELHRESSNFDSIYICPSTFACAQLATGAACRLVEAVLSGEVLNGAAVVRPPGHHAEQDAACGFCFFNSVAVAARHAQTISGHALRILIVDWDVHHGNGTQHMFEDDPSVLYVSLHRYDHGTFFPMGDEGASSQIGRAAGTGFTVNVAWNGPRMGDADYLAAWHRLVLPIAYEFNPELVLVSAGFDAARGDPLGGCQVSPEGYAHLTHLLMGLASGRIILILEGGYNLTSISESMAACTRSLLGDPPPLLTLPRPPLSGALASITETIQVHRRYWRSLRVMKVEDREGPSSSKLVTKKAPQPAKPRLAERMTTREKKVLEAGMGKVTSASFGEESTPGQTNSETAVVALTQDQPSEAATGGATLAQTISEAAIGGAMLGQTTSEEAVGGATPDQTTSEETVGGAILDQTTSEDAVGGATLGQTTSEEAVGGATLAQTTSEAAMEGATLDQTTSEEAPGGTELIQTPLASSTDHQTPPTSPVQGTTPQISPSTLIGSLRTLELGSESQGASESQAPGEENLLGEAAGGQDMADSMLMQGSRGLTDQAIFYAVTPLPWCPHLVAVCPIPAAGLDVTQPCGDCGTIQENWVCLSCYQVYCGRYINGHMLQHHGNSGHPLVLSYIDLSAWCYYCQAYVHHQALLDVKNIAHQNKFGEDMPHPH
Protocol: The enzyme was diluted with 25 mM Tris-Cl, 137 mM NaCl, 2.7 mM KCl, 1 mM MgCl2, 0.1 mg/ml BSA, pH 8.0 buffer and its activity was measured by using Substrate 3 (BPS Bioscience; catalog #50037). The assays were carried out in black, low-binding NUNC 96-well plates. Each well contained a volume of 50 μl including buffer, HDAC (50 ng/well), inhibitor, and substrate (20 μM). Prior to adding substrate, the plate was pre-incubated for 5 min. Upon addition of substrate, the plate was incubated at 37 °C for 30 min. At this point, HDAC assay developer (50 μl, BPS Bioscience; catalog #50030) was added to each well and the plate was incubated for 15 min at room temperature. The fluorescence was recorded with a BioTek FLx800 or Synergy H4 microplate reader.

[1] = biological target: Macrophage metalloelastase (Homo sapiens, UniProt P39900); assay: MMP Activity Assay; conditions: pH 7.5; 37 °C
Protocol: (§1) The assay was carried out in white NUNC 96-well plates as previously described [Puerta et al., J. Biol. Inorg. Chem., 11:131-138]. Each well contained a total volume of 90 μl including buffer (50 mM HEPES, 10 mM CaCl2, 0.05% Brij-35, pH 7.5), human recombinant MMP (1.16 U/well for MMP2 and 0.007 U/well for MMP12), and the fragment solution. This mixture was incubated at 37 °C for 30 min. The reaction was then initiated by the addition of 10 μl of the fluorogenic MMP substrate (4 μM final concentration, Mca-Pro-Leu-Gly-Leu-Dpa-Ala-Arg-NH2-AcOH) (Mca = (7-methoxycoumarin-4-yl) acetyl; Dpa = N-3-(2,4-dinitrophenyl)-L-a,β-diaminopropionyl). Fluorescence measurements were recorded using a BioTek Synergy H4 fluorescence plate reader every minute for 20 min with excitation and emission wavelengths at 320 and 400 nm, respectively.

[2] = biological target: 72 kDa type IV collagenase (Homo sapiens, UniProt P08253); assay: MMP Activity Assay; conditions: pH 7.5; 37 °C
Protocol: as §1

[3] = biological target: BRISC and BRCA1-A complex member 1/BRISC and BRCA1-A complex member 2/BRISC complex subunit Abraxas 2/Lys-63-specific deubiquitinase BRCC36 (Human, UniProt P46736+Q15018+Q9NWV8+Q9NXR7); assay: In Vitro BRCC36 Activity Assay
Protocol: BRCC36 activity was measured using 1 nM purified BRISC complex and 80 nM di-ubiquitin substrate DiUbK63TAMRA (UF-310, Boston Biochem). TAMRA fluorescence intensity was monitored using a PHERAstar plate reader with excitation at 540 nm and emission at 590 nm. Reactions were performed in black low-volume 384-well plates and analyzed as described above.

[4] = biological target: 26S proteasome non-ATPase regulatory subunit 14 (Homo sapiens, UniProt O00487); assay: In Vitro Rpn11 Activity Assay; conditions: pH 7.5; 30 °C
Chain of 26S proteasome non-ATPase regulatory subunit 14 (O00487 whole entry): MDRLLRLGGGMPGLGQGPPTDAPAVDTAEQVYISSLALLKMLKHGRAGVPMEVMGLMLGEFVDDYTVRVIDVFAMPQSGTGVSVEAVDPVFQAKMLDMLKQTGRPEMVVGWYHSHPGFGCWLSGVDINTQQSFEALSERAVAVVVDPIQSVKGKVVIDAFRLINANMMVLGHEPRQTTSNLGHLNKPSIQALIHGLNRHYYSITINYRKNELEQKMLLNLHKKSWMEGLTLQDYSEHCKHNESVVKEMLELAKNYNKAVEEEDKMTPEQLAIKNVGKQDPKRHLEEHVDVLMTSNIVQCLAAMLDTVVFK

Chain of Lactoylglutathione lyase (Q04760 whole entry): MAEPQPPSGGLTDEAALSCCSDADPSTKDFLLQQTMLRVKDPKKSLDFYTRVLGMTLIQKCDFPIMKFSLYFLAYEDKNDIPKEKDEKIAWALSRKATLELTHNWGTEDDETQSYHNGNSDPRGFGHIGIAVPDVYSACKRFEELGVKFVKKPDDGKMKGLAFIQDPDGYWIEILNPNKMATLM
Chain of 72 kDa type IV collagenase (P08253 whole entry): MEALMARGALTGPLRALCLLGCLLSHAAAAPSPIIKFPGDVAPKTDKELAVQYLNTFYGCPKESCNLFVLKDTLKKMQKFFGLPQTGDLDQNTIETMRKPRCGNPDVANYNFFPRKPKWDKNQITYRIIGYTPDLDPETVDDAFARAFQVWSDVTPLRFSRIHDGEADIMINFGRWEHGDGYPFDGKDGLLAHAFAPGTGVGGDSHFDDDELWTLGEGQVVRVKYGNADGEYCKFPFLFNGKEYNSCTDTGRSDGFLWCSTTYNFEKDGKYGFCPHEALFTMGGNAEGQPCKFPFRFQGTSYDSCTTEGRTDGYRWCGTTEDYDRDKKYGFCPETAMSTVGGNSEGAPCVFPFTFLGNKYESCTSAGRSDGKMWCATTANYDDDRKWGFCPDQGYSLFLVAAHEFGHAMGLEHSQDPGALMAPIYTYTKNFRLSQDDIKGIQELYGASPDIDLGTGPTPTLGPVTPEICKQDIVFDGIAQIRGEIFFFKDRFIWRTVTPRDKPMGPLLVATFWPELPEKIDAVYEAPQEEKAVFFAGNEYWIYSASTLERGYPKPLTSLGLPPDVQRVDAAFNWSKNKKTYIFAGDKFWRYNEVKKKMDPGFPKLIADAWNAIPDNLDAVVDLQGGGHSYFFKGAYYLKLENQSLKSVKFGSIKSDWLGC
Chain of Macrophage metalloelastase (P39900 whole entry, the tested form may be a part): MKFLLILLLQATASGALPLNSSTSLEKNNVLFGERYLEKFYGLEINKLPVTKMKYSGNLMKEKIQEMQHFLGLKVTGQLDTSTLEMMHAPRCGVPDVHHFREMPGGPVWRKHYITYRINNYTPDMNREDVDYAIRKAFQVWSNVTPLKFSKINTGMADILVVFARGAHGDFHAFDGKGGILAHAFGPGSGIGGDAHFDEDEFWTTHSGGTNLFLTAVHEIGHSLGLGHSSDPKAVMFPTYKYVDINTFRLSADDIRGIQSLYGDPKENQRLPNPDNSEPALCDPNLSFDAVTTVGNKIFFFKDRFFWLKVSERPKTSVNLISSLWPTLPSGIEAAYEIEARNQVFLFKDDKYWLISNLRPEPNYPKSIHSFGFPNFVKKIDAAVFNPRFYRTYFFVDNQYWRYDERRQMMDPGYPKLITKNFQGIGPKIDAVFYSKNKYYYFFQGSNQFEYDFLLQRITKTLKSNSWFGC

pIC50 (Lactoylglutathione lyase) | pIC50 (Histone deacetylase 6) | pIC50 [1] | pIC50 [2] | pIC50 [3] | pIC50 [4] | Structure (SMILES)
4.37 | < 3.70 | < 4.30 | < 4.30 | 5.64 | – | O=C(NCCc1nccs1)c1cnc2c(S)cccc2c1 [Capzimin]
– | – | – | – | – | 5.62 | Sc1cccc2cccnc12 [8-Mercaptoquinoline (8TQ)]
